Laboratory results: the supplement of paper PMC13380429

How the values were obtained:
Conditions in all cases: 72 h
Calu-3 [1] = test: cell viability relative to DMSO; higher = less toxic
U2OS [2] = test: as above
Vero E6 [3] = test: as above
Caco-2 [4] = test: as above
HepG2 [5] = test: as above
Calu-3 [6] = test: drug sensitivity score (DSS) for viability; higher = more toxic; extreme values may be limits of the assay
U2OS [7] = test: as above
Vero E6 [8] = test: as above
Caco-2 [9] = test: as above
HepG2 [10] = test: as above
Calu-3 [11] = test: relative viability EC50 (midpoint between 100% and the lowest measured viability); higher = less toxic
U2OS [12] = test: as above
Vero E6 [13] = test: as above
Caco-2 [14] = test: as above
HepG2 [15] = test: as above

SMILES | cell viability (Calu-3 [1]; 1 nM) [%] | cell viability (Calu-3 [1]; 10 nM) [%] | cell viability (Calu-3 [1]; 100 nM) [%] | cell viability (Calu-3 [1]; 1000 nM) [%] | cell viability (Calu-3 [1]; 10000 nM) [%] | cell viability (U2OS [2]; 1 nM) [%] | cell viability (U2OS [2]; 10 nM) [%] | cell viability (U2OS [2]; 100 nM) [%] | cell viability (U2OS [2]; 1000 nM) [%] | cell viability (U2OS [2]; 10000 nM) [%] | cell viability (Vero E6 [3]; 1 nM) [%] | cell viability (Vero E6 [3]; 10 nM) [%] | cell viability (Vero E6 [3]; 100 nM) [%] | cell viability (Vero E6 [3]; 1000 nM) [%] | cell viability (Vero E6 [3]; 10000 nM) [%] | cell viability (Caco-2 [4]; 1 nM) [%] | cell viability (Caco-2 [4]; 10 nM) [%] | cell viability (Caco-2 [4]; 100 nM) [%] | cell viability (Caco-2 [4]; 1000 nM) [%] | cell viability (Caco-2 [4]; 10000 nM) [%] | cell viability (HepG2 [5]; 1 nM) [%] | cell viability (HepG2 [5]; 10 nM) [%] | cell viability (HepG2 [5]; 100 nM) [%] | cell viability (HepG2 [5]; 1000 nM) [%] | cell viability (HepG2 [5]; 10000 nM) [%] | drug sensitivity score (Calu-3 [6]) | drug sensitivity score (U2OS [7]) | drug sensitivity score (Vero E6 [8]) | drug sensitivity score (Caco-2 [9]) | drug sensitivity score (HepG2 [10]) | relative viability EC50 (Calu-3 [11]) [µM] | relative viability EC50 (U2OS [12]) [µM] | relative viability EC50 (Vero E6 [13]) [µM] | relative viability EC50 (Caco-2 [14]) [µM] | relative viability EC50 (HepG2 [15]) [µM]
Fc1ccc(-c2cncc(CN3CCN(c4cccc5c4OCCO5)CC3)c2)cc1 [adoprazine] | 102 | 105 | 93.8 | 94.2 | 104 | 98.2 | 99.7 | 92.1 | 104 | 95.4 | 103 | 98.6 | 93.9 | 98.8 | 105 | 91 | 102 | 98.5 | 109 | 100 | 104 | 90.6 | 92.8 | 106 | 91.7 | 0 | 0 | 0 | 0 | 0 | > 10 | > 10 | > 10 | > 10 | > 10
O=C(Oc1ccc([N+](=O)[O-])cc1)N1CCN(Cc2cccc(Oc3ccccc3)c2)CC1 [JZL-195] | 102 | 104 | 91.5 | 103 | 93.5 | 98.6 | 100 | 97.4 | 100 | 94.6 | 97.3 | 103 | 104 | 92.9 | 99.7 | 107 | 94.7 | 86.7 | 93.7 | 95.4 | 91.8 | 99.5 | 103 | 99.2 | 82.4 | 0 | 0 | 0 | 0 | 0.5 | > 10 | > 10 | > 10 | > 10 | > 10
O=C(CCc1ccc(O)cc1)c1c(O)cc(O)cc1O[C@@H]1O[C@H](CO)[C@@H](O)[C@H](O)[C@H]1O [phlorizin] | 89.7 | 95.5 | 93.2 | 94.3 | 95.3 | 96.7 | 98.5 | 93.3 | 104 | 94.5 | 96.4 | 97.9 | 98.4 | 96.7 | 97.3 | 94.3 | 118 | 98.3 | 97.7 | 93.7 | 107 | 87.5 | 94.9 | 96.9 | 106 | 0 | 0 | 0 | 0 | 0 | > 10 | > 10 | > 10 | > 10 | > 10
COc1ccsc1CNCC[C@@]1(c2ccccn2)CCOC2(CCCC2)C1 [TRV130] | 103 | 96.9 | 101 | 112 | 104 | 103 | 102 | 102 | 96.9 | 100 | 96.9 | 100 | 95.7 | 94.5 | 96.6 | 105 | 104 | 101 | 93 | 97.6 | 105 | 95.6 | 91.9 | 102 | 94.9 | 0 | 0 | 0 | 0 | 0 | > 10 | > 10 | > 10 | > 10 | > 10
COc1ccc2[nH]c(I)c(CCNC(C)=O)c2c1 [2-iodomelatonin] | 99.5 | 100 | 103 | 92.7 | 94.8 | 95.3 | 103 | 94.9 | 97.9 | 102 | 94.6 | 93.1 | 92.4 | 94.9 | 108 | 98.5 | 106 | 94.6 | 104 | 96.2 | 105 | 98.6 | 113 | 96.5 | 105 | 0 | 0 | 0 | 0 | 0 | > 10 | > 10 | > 10 | > 10 | > 10
CCCCNc1ncc2c(-c3ccc(CN4CCN(C)CC4)cc3)cn([C@H]3CC[C@H](O)CC3)c2n1 [UNC2025] | 98.5 | 99.7 | 100 | 87.1 | 34.2 | 98.4 | 103 | 97 | 60.3 | 0.3 | 95.3 | 101 | 100 | 73.3 | 34.6 | 88.5 | 103 | 97.3 | 95.5 | 33.6 | 88.6 | 94 | 92 | 54.7 | 5.2 | 5.7 | 10.5 | 7.2 | 4.3 | 10.5 | 1.75 | 1.21 | 1.16 | 2.62 | 1.02
O[C@@H]1CO[C@H]2[C@@H]1OC[C@@H]2O [isosorbide] | 97.3 | 97.6 | 106 | 101 | 111 | 96.8 | 98.9 | 95 | 98.8 | 94.4 | 96.7 | 100 | 97.5 | 92.9 | 99.8 | 94.8 | 93.7 | 91.4 | 102 | 99.8 | 93.4 | 92.5 | 106 | 99.6 | 105 | 0 | 0 | 0 | 0 | 0 | > 10 | > 10 | > 10 | > 10 | > 10
O=C(OOC(=O)c1ccccc1)c1ccccc1 [benzoyl-peroxide] | 99 | 95.8 | 103 | 99 | 103 | 98 | 95.2 | 99.3 | 97.6 | 94.1 | 95.6 | 98.8 | 92 | 95 | 105 | 102 | 87.9 | 96.6 | 91.2 | 99.4 | 92.1 | 104 | 99.1 | 110 | 107 | 0 | 0 | 0 | 0 | 0 | > 10 | > 10 | > 10 | > 10 | > 10
CC1CCN(CC[C@H]2CCCN2S(=O)(=O)c2cccc(O)c2)CC1 | 90.1 | 94.8 | 92.3 | 100 | 105 | 94.3 | 101 | 93.4 | 104 | 101 | 100 | 93.5 | 96.8 | 93.8 | 105 | 90.4 | 86.5 | 96.1 | 91.5 | 102 | 91.9 | 98.1 | 103 | 96.7 | 101 | 0 | 0 | 0 | 0 | 0 | > 10 | > 10 | > 10 | > 10 | > 10
CC(NCCc1ccc(O)cc1)C(O)c1ccc(O)cc1 (stereo not given) [ritodrine] | 102 | 105 | 93.7 | 98.3 | 101 | 96.9 | 102 | 97 | 101 | 105 | 86.5 | 93.6 | 102 | 98.9 | 109 | 91.4 | 97.7 | 95.5 | 99.7 | 105 | 94.5 | 102 | 91.4 | 95.8 | 103 | 0 | 0 | 0 | 0 | 0 | > 10 | > 10 | > 10 | > 10 | > 10
COc1ccc(-c2nc(-c3ccc(-c4cccc(Cl)c4)o3)[nH]c2-c2ccc(OC)cc2)cc1 [neurodazine] | 91.4 | 96 | 97.2 | 79.6 | 89.6 | 100 | 99 | 105 | 96.3 | 96.1 | 109 | 103 | 98.4 | 102 | 96.6 | 106 | 94.9 | 109 | 103 | 84.4 | 112 | 99.5 | 96.3 | 98.2 | 86.2 | 0.6 | 0 | 0 | 0.2 | 0.3 | > 10 | > 10 | > 10 | > 10 | > 10
O=C(NCC(=O)N1CCCCC1)Nc1ccc2nnsc2c1 [UNC2327] | 95 | 97.5 | 90.8 | 103 | 99.3 | 99.9 | 106 | 96.3 | 99.1 | 99.8 | 97.5 | 103 | 98.7 | 101 | 104 | 95.3 | 102 | 95.4 | 105 | 95.4 | 87.1 | 93.7 | 103 | 99.7 | 98.1 | 0 | 0 | 0 | 0 | 0 | > 10 | > 10 | > 10 | > 10 | > 10
N[C@@H](C[C@@H](F)C(=O)O)C(=O)O [BAY-85-8050] | 90.2 | 94.7 | 90.6 | 86.2 | 98.5 | 93.5 | 99.6 | 96.7 | 100 | 106 | 93.6 | 93.8 | 102 | 95.7 | 100 | 91.1 | 105 | 97.8 | 100 | 110 | 96.2 | 98.7 | 109 | 95.6 | 99.7 | 0 | 0 | 0 | 0 | 0 | > 10 | > 10 | > 10 | > 10 | > 10
O=C(O)C1(C(=O)O)CCC1.[NH2-].[NH2-].[Pt+2] [carboplatin] | 90.8 | 98.8 | 93.6 | 90.7 | 106 | 94.3 | 95.9 | 93.2 | 100 | 108 | 99.6 | 92.5 | 103 | 98.4 | 109 | 97.8 | 102 | 85.4 | 94.9 | 100 | 106 | 98.7 | 99.5 | 90.7 | 103 | 0 | 0 | 0 | 0 | 0 | > 10 | > 10 | > 10 | > 10 | > 10
